Results on six compounds are retold here after patent US20040147788A1, “Stilbene derivatives and their use as aryl hydrocarbon receptor antagonistic ligands” (priority 2002, published 2004).

Several values for one entry are separate records, joined by “and”; a condition that tells them apart may be missing. Identical values can stand only once.

Data set [1] addresses T1, Aryl Hydrocarbon Receptor (AhR) (Oryctolagus cuniculus, UniProt O02747).
T1 construct: from tissue; host or cells: female New Zealand rabbit liver cytosol
T1 sequence (O02747 1-847): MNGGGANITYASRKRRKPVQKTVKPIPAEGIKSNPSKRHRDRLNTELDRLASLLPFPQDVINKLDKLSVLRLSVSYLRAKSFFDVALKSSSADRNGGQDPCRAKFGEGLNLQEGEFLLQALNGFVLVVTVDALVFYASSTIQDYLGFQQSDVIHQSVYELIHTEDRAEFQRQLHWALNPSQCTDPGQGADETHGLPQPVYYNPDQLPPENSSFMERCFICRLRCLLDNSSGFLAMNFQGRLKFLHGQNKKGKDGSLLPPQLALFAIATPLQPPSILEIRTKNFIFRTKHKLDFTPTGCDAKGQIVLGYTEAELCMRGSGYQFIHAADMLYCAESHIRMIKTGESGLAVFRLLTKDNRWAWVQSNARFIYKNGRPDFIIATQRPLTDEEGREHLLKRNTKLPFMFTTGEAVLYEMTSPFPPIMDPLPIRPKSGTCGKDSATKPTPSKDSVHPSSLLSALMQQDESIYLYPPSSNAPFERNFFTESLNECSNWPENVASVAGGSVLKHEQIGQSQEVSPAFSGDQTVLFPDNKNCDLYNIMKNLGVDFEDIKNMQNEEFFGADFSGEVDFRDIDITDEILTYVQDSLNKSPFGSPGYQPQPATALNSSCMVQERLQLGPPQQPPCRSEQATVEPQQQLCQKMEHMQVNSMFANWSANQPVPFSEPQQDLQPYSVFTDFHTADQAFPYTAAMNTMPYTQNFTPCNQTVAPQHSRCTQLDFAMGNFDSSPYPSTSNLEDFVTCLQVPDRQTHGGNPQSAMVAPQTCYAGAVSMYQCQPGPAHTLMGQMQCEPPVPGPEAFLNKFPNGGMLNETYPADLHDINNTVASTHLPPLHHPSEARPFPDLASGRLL
Put plainly: Ligand binding competition assay (Aryl Hydrocarbon Receptor), [3H]TCDD displacement. Details: species or system female New Zealand rabbit (liver cytosol). The settings on record: for AhR RBA (relative binding affinity): trans-stilbenes, resveratrol = 1. The protocol: Ligand binding competition assay (Aryl Hydrocarbon Receptor)
Experiments were conducted exactly as previously described by Savouret et al., (3). Briefly, binding competition was performed using female New Zealand rabbit liver cytosol as the receptor source. The cytosol was prepared at 4° C. in Hepes 20 mM pH 7.6, EDTA 1.5 mM, glycerol 10%, β-mercapto-ethanol 10 mM, with Complete protease cocktail (Roche, Meylan, France) by homogenisation in a Ultra-Turax homogenizer (Bioblock Scientific, Illkirch, France) followed with 20 strokes in a Dounce Homogenizer with the tight pestle. The homogenate was centrifuged 30 min at 20,000 g. The supernatant was centrifuged at 105,000 g for 65 min. The cytosol was aliquoted, snap-frozen in liquid nitrogen and kept at −80° C. Cytosol aliquotes (4.5 ml) were thawed on ice, diluted ten-fold in Hepes 20 mM pH 7.6, 5 mM CaCl2, containing Complete protease cocktail and 10 mM mercapto-ethanol, and recentrifuged 30 min. at 105,000 g. The cleared cytosol dilution was adjusted to 0.85 mg proteins/ml. 930 μl of diluted cytosol were preincubated with the desired amounts of unlabeled competitors in ethanol solutions for 1 hour at 4° C. Subsequently, 2,3,7,8-tetrachloro (1,6-3 H) dibenzo-p-dioxin (28 Ci/mmole) was added at 0.2 nM and incubation continued for 3 hours at 4° C. Non-displaceable binding was assessed by incubating the aliquotes with 70 μl of a 2% activated charcoal suspension in Hepes 20 mM pH 7.6 for 90 minutes at 4° C., followed by centrifugation at 15,000 g for 10 minutes. 500 μl of the supernatants were counted in 5 ml of Ultima Gold cocktail (Packard, Meridien, Conn.) in a Beckman liquid scintillation Counter (45% counting efficiency). Binding competition assays were repeated at least twice for each competitor and each point was performed in triplicate.

The target in a further data set is T2, AhR (Homo sapiens, UniProt P35869).
T2 sequence (P35869 11-848): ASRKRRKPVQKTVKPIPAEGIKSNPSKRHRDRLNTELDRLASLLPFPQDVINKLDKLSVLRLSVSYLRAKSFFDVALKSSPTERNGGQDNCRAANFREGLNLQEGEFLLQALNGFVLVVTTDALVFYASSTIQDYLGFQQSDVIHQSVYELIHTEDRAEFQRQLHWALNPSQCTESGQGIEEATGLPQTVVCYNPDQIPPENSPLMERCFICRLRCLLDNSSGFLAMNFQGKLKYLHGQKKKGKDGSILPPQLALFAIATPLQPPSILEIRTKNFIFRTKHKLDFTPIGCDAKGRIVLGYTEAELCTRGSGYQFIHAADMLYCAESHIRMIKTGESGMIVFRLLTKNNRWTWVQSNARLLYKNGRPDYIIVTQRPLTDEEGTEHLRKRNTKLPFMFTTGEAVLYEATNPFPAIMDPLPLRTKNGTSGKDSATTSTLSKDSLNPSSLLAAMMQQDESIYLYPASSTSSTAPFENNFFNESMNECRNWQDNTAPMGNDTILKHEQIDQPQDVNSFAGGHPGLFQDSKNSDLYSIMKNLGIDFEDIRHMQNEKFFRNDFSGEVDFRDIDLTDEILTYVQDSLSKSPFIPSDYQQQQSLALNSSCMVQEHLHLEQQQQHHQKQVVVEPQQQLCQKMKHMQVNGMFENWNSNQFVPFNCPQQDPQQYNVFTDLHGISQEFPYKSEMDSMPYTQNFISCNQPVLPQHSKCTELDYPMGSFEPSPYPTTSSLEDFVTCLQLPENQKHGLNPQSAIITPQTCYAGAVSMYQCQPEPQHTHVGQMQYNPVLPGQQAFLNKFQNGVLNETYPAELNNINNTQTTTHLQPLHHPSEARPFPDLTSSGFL
Description: AhR-mediated transactivation, DRE-TK-CAT stable cell line 47DRE treated with TCDD. The data set is classed as cell-based. Details: endogenous in cells; key to AhR T.A. (transcriptional activity): Ago: agonist; N.M.: not measurable. The note with it: trans-stilbenes; DRE-TKCAT reporter, 10^−9 M TCDD challenged by 10^−7 M compound. Here is the method:
Cis and Trans isomers were then tested for transcriptional modulatory activity in a DRE-TK-CAT containing stable cell line treated with TCDD.
mp° C.: melting point. Ago: agonist. N.M.: not measurable. RBA: relative binding affinity of the compound for the given receptor (AhR or ER).
The stable cell line 47DRE bearing the TCDD-responsive CAT construct was previously described (3). It was routinely grown in DMEM medium supplemented with 10% fetal calf serum (FCS), 4.5 g/L glucose, and 0.6 units/ml (10^−6 M) insulin. Unless stated otherwise, cells were established 24 hours before any experiment in a modified medium (stripped condition) containing 5% Dextran-charcoal-treated newbom calf serum instead of 10% FCS. All other components remained unchanged. […] All chemicals applied to the cells were diluted in ethanol, control cells received ethanol alone. CAT expression was assayed on whole cell extracts (100 μg protein) with a CAT-ELISA assay (Roche, Meylan, France) according to supplier's specifications. Experiments were done in triplicate.

For the compound `COc1ccc(/C=C/c2cc(Cl)cc(Cl)c2)cc1` [Compound 4j, (E)-1-(4-methoxyphenyl)-2-(3,5-dichlorophenyl)-ethene], the melting point is 62 to 64 °C. Moreover, in data set [1], the “relative binding affinity (RBA) for AhR” value was found to be 112.0 and the “AhR RBA (relative binding affinity)” value was found to be 112.0. On AhR, the “AhR T.A. (transcriptional activity)” value is reported as “Ant”.
For the compound `COc1ccc(/C=C/c2cc(F)cc(F)c2)cc1` [Compound 4c, (E)-1-(4-methoxyphenyl)-2-(3,5-difluorophenyl)-ethene], the melting point was in the range of 108 to 110 °C. For the same compound, in data set [1], the “AhR RBA (relative binding affinity)” value amounted to 17.5. Also, the “AhR T.A. (transcriptional activity)” value on AhR was “Ant”.
Regarding `CCOc1ccc(/C=C/c2cc(OC)cc(OC)c2)cc1` [Compound 4g, (E)-1-(4-ethoxyphenyl)-2-(3,5-dimethoxyphenyl)-ethene], the melting point lay within 54 to 55 °C. Further, in data set [1], the “AhR RBA (relative binding affinity)” value is recorded as 39.8. For the same compound, at AhR, the “AhR T.A. (transcriptional activity)” value is on record as “Ant”.
As to `FC(F)(F)c1ccc(/C=C/c2cc(C(F)(F)F)cc(C(F)(F)F)c2)cc1` [Compound 4e, (E)-1-(4-trifluoromethylphenyl)-2-(3,5-ditrifluoromethylphenyl)-ethene], the melting point is 99 to 100 °C. Further, in data set [1], the “relative binding affinity (RBA) for AhR” value is listed as 52.1 and the “AhR RBA (relative binding affinity)” value was determined as 52.1. Also, the “AhR T.A. (transcriptional activity)” value on AhR is reported as “Ant”.
In the case of `FC(F)(F)c1ccc(/C=C/c2cc(Cl)cc(Cl)c2)cc1` [Compound 4i, (E)-1-(4-trifluoromethylphenyl)-2-(3,5-dichlorophenyl)-ethene], the melting point lay in the range of 98 to 100 °C. In addition, in data set [1], the “AhR RBA (relative binding affinity)” value was found to be 791.0. On AhR, the “AhR T.A. (transcriptional activity)” value was “Ago”.
`Fc1ccc(/C=C/c2cc(F)cc(F)c2)cc1` [Compound 4d, (E)-1-(4-fluorophenyl)-2-(3,5-difluorophenyl)-ethene]: the melting point was 47 to 48 °C and 47 °C. In addition, the “AhR RBA (relative binding affinity)” value in data set [1] turned out to be 39.1. Further, on AhR, the “AhR T.A. (transcriptional activity)” value is “Ant”.

One may read the melting point as the temperature, or range, at which the solid turns liquid.
